Data set [1] concerns subjects suffering from chronic bronchitis. The data set can be described thus: Clinical experiments on subjects suffering from chronic bronchitis. Type of data set: in vivo, human. The note with it: subjects with chronic bronchitis. The procedure: Clinical experiments were also carried out with the product of Example 1 on subjects suffering from chronic bronchitis.
Data set [2] relates to rats. The data set can be described thus: Acute toxicity, lethal doses two days after intraperitoneal treatment. It counts as in vivo. The note with it: rat. The procedure: (§1) The products tested are dissolved in a […] sodium chloride solution or, if they are insoluble in this solution, suspended using "Tween 80" (for oral and intraperitoneal administration) or dissolved in polyethylene glycol 300 (for intravenous administration).
The acute toxicity is determined on batches, each of two rats. The doses administered extend from 4 to 512 mg./kg. in geometrical progression, constant ratio 2.
Table II below gives the 0 to 100 (%) lethal doses, two days after treatment, in mg./kg. administered intraperitoneally.

Data set [3] deals with phenylbenzoquinone-induced reactions (stretching of the body). The data set can be described thus: Antalgic activity: inhibition of phenylbenzoquinone-induced stretching. Type of data set: in vivo. The note with it: Mus musculus, 1 h, read-out: percentage inhibition relative to control animals; for inhibition in vivo at 16 mg/kg / inhibition in vivo at 64 mg/kg / inhibition in vivo at 32 mg/kg: mice, oral; for inhibition in vivo at 128 mg/kg: po. The procedure:
as §1
The products to be tested are administered orally to batches of six mice each weighing 19-21 g. One hour afterwards, 0.20 ml. of an aqueous-alcoholic solution containing 0.02% of phenylbenzoquinone (phenylbenzoquinone: 20 mg, 96% alcohol; 5 ml; water q.s.p. 100 ml) is injected intraperitoneally. The number of reactions (stretching of the body) from the 5th to the 10th minutes following the injection of phenylbenzoquinone is counted.
Table IV gives the percentage inhibition relative to control animals. __________________________________________________________________________ Compound of Example No. Dose, mg/kg 1 2 3 administered and 4 5 7 9 10 11 12 13 14 15 16 18 19 20 orally 6 17 8 __________________________________________________________________________ 16 10 57 -- 23 -- 25 14 21 22 45 24 35 29 40 43 3 26 32 -- 38 37 -- 0 -- -- -- -- -- -- -- -- -- -- -- -- 64 31 63 -- 17 -- 25 19 46 38 36 24 38 29 28 55 26 38 128 -- -- 41 -- 19 -- -- -- -- -- -- -- -- -- -- -- -- __________________________________________________________________________

The test system of data set [4] is cough reaction to stimulation of the upper laryngeal nerves. The data set is described as follows: Anti-tussive activity: Domenjoz method (stimulation of upper laryngeal nerves). It counts as in vivo, cat. Also on record: key: 0: inactive; +: marked diminution of cough; ++: suppression of cough for 5 to 15 minutes; +++: suppression of cough for more than 15 minutes. As to conditions: anaesthetised cats, intravenous (femoral vein). The procedure: as §1
Cats are anaesthetised by intraperitoneal injection of 30 mg./kg. of sodium mebubarbital. The arterial pressure is measured on the femoral artery by a Statham P 23 Db gauge. A tracheotomy is carried out; a Y-shaped cannula allows a part of the air breathed out to be branched off onto a Statham PM 6 gauge; the cardiac rhythm is measured by integration of the QRS complexes of the electrocardiogram. All these measurements are amplified and recorded on a Beckman Dynograph. The two upper laryngeal nerves are very carefully dissected and stimulated for 10 seconds by a surging current generated by a Hugo Sachs Stimulator I: voltage 3 volts, duration […], frequency 50 cycles/second. The test products are injected into the femoral vein. The first stimulation takes place 5 minutes after administration of the product and then every 5 minutes until the reaction returns to the initial amplitude. Each nerve is stimulated in turn (left-hand nerve: 5, 15, 25 minutes etc; right-hand nerve 10, […] minutes etc. after treatment).
+ marked diminution of cough
++ suppression of cough for 5 to 15 minutes
+++ suppression of cough for more than 15 minutes

A short description of data set [5]: Solubility under the conditions of the local anaesthetic test. Type of data set: physicochemical. As to conditions: sodium chloride solution, pH of 6 to 7. The procedure:
This is investigated by the technique of Bulbring and Wajda. The backs of male guinea pigs weighing 350-450 g. are shaved with an electric razor. 0.1 ml. of a solution of the compounds to be tested is injected into the dermis (only those products which are soluble in the sodium chloride solution and give a pH of 6 to 7 are examined). Four points spaced 2 cm apart are marked on the skin, the product being administered at two of these and the solvent being administered at the remaining two. The skin reflex is examined by pricking each point six times with a mounted bristle. The number of positive reactions is counted and an inhibition percentage is calculated from the total number of positive reactions over the course of 30 minutes. Table V gives the inhibition percentages measured as a function of the concentrations of the solutions. The compounds of Examples 7, 18 and 19 are insoluble under the experimental conditions.

Molecules are shown by their SMILES.

From patent publication US3937832A, “Esters of 2,2-diphenyl-cyclopropane-carboxylic acids as cough suppressants” (Societe anonyme dite: Hexachimie, priority 1974, dated 1976) come the findings set out here.

As for `O=C(OCCN1CCCCC1)C1CC1(c1ccccc1)c1ccccc1` (stereo not drawn) [Example 1, β-Piperidino-ethyl ester of 2,2-diphenyl-cyclopropane-carboxylic acid], in data set [1], the effect on cough entry was “suppression of the cough”, the facilitation of expectoration entry is “facilitation of expectoration” and the “sensation of feeling better” value was “a sensation of feeling better”. The reduction in expectoration result in data set [1] ("the latter" = expectoration) is reported as “a reduction in the latter”. In data set [2], this compound came in with an LD0 of 64 mg/kg and an LD100 of 128 mg/kg. For the same compound, in data set [3], the inhibition in vivo at 16 mg/kg turned out to be 10% and the inhibition in vivo at 64 mg/kg was 31%.

`O=C(OCCOCCN1CCCC1)C1CC1(c1ccccc1)c1ccccc1` (centres unmarked) [Example 2, 2-(2'-pyrrolidino-ethoxy)-ethyl ester of 2,2-diphenyl-cyclopropane carboxylic acid]: the “Rating (anti-tussive activity)” value in data set [4] is on record as “+”. In data set [2], the LD0 came to 32 mg/kg and the LD100 turned out to be 128 mg/kg. Also, in data set [3], the inhibition in vivo at 16 mg/kg was found to be 57%, the inhibition in vivo at 32 mg/kg was determined as 38% and the inhibition in vivo at 64 mg/kg was 63%.

Consider `O=C(OCCN1CCOCC1)C1CC1(c1ccccc1)c1ccccc1` (stereo not drawn) [Example 3, β-Morpholino-ethyl ester of 2,2-diphenyl-cyclopropane-carboxylic acid], for which, in data set [2], the LD0 amounted to 128 mg/kg and the LD100 is 256 mg/kg. In addition, in data set [3], the inhibition in vivo at 32 mg/kg was determined as 37% and the inhibition in vivo at 128 mg/kg was found to be 41%.

In data set [2], `CN(C)CCOC(=O)C1CC1(c1ccccc1)c1ccccc1` (centres unmarked) [Example 4] returned an LD0 of 128 mg/kg and an LD100 of 256 mg/kg. In data set [3], the inhibition in vivo at 16 mg/kg turned out to be 23% and the inhibition in vivo at 64 mg/kg amounted to 17%.

On to `O=C(OCCN1CCCC1)C1CC1(c1ccccc1)c1ccccc1` (centres unmarked) [Example 5], for which, in data set [2], the LD0 came out at 128 mg/kg and the LD100 stood at 256 mg/kg. In data set [3], the inhibition in vivo at 32 mg/kg stood at 0% and the inhibition in vivo at 128 mg/kg came out at 19%.

In the case of `O=C(OCCN1CCCCCC1)C1CC1(c1ccccc1)c1ccccc1` (centres unmarked) [Example 7], the “solubility under the experimental conditions” value (from here on “solubility”) in data set [5] is recorded as “insoluble”. In data set [2], the LD0 is 64 mg/kg and the LD100 was determined as 128 mg/kg. In data set [3], the inhibition in vivo at 16 mg/kg came to 25% and the inhibition in vivo at 64 mg/kg came to 25%.

Take `CN1CCN(CCOC(=O)C2CC2(c2ccccc2)c2ccccc2)CC1` (centres unmarked) [Example 9]: the “Rating (anti-tussive activity)” value in data set [4] is given as “+”. For the same compound, in data set [2], the LD0 stood at 64 mg/kg and the LD100 worked out at 128 mg/kg. Besides, in data set [3], the inhibition in vivo at 16 mg/kg came to 14% and the inhibition in vivo at 64 mg/kg was found to be 19%.

In data set [2], `CC1CCCN(CCOC(=O)C2CC2(c2ccccc2)c2ccccc2)C1` (centres unmarked) [Example 10] returned an LD0 of 64 mg/kg and an LD100 of 256 mg/kg. Moreover, in data set [3], the inhibition in vivo at 16 mg/kg turned out to be 21% and the inhibition in vivo at 64 mg/kg stood at 46%.

For `CC1CCN(CCOC(=O)C2CC2(c2ccccc2)c2ccccc2)CC1` (centres unmarked) [Example 11], the “Rating (anti-tussive activity)” value in data set [4] is reported as “+”. Also, in data set [2], the LD0 was 64 mg/kg and the LD100 worked out at 256 mg/kg. Besides, in data set [3], the inhibition in vivo at 16 mg/kg is 22% and the inhibition in vivo at 64 mg/kg came to 38%.

As to `CC1CCCC(C)N1CCOC(=O)C1CC1(c1ccccc1)c1ccccc1` (centres unmarked) [Example 12], in data set [2], the LD0 was found to be 32 mg/kg and the LD100 worked out at 128 mg/kg. For the same compound, in data set [3], the inhibition in vivo at 16 mg/kg was 45% and the inhibition in vivo at 64 mg/kg was determined as 36%.

In data set [2], `Cc1ccc(C2(c3ccc(C)cc3)CC2C(=O)OCCN2CCCC2)cc1` (centres unmarked) [Example 13] showed an LD0 of 128 mg/kg and an LD100 of 256 mg/kg. Also, in data set [3], the inhibition in vivo at 16 mg/kg came to 24% and the inhibition in vivo at 64 mg/kg was found to be 24%.

For the compound `Cc1ccc(C2(c3ccc(C)cc3)CC2C(=O)OCCN2CCCCC2)cc1` (centres unmarked) [Example 14], in data set [2], the LD0 amounted to 256 mg/kg and the LD100 came out at 512 mg/kg. Also, in data set [3], the inhibition in vivo at 16 mg/kg was 35% and the inhibition in vivo at 64 mg/kg amounted to 38%.

For `O=C(OCCN1CCCCC1)C1CC1(c1ccc(Cl)cc1)c1ccc(Cl)cc1` (centres unmarked) [Example 15], the “Rating (anti-tussive activity)” value in data set [4] is recorded as “+”. In data set [2], this compound came in with an LD0 of 128 mg/kg and an LD100 of 256 mg/kg. Besides, in data set [3], the inhibition in vivo at 16 mg/kg was determined as 29% and the inhibition in vivo at 64 mg/kg turned out to be 29%.

In the case of `COc1ccc(C2(c3ccc(OC)cc3)CC2C(=O)OCCN2CCCCC2)cc1` (centres unmarked) [Example 16], the “Rating (anti-tussive activity)” value in data set [4] is on record as “+”. In data set [2], this compound displayed an LD0 of 128 mg/kg and an LD100 of 512 mg/kg. In addition, in data set [3], the inhibition in vivo at 16 mg/kg turned out to be 40% and the inhibition in vivo at 64 mg/kg is 28%.

As to `O=C(OCCOCCN1CCCCC1)C1CC1(c1ccccc1)c1ccccc1` (centres unmarked) [Example 18], in data set [5], the “solubility” value is on record as “insoluble”. In data set [2], this compound registered an LD0 of 64 mg/kg and an LD100 of 256 mg/kg. Moreover, in data set [3], the inhibition in vivo at 16 mg/kg came to 43% and the inhibition in vivo at 64 mg/kg came to 55%.

Take `O=C(OCCOCCN1CCCCCC1)C1CC1(c1ccccc1)c1ccccc1` (centres unmarked) [Example 19]: the “Rating (anti-tussive activity)” value in data set [4] was “+”. Also, the “solubility” value in data set [5] was “insoluble”. In data set [2], this compound yielded an LD0 of 64 mg/kg and an LD100 of 128 mg/kg. Moreover, in data set [3], the inhibition in vivo at 16 mg/kg is 3% and the inhibition in vivo at 64 mg/kg amounted to 26%.

For the compound `CN1CCN(CCOCCOC(=O)C2CC2(c2ccccc2)c2ccccc2)CC1` (centres unmarked) [Example 20], the “Rating (anti-tussive activity)” value in data set [4] is recorded as “+”. In data set [2], this compound yielded an LD0 of 64 mg/kg and an LD100 of 128 mg/kg. In data set [3], the inhibition in vivo at 16 mg/kg turned out to be 26% and the inhibition in vivo at 64 mg/kg was determined as 38%.
